# Source: US20060069132A1, “Azolecarboxamide herbicides” (priority 2004, published 2006)
# Columns and labels:
# morningglory = experiment: Test B pre-/postemergence herbicide test; assay type: in vivo, Ipomoea coccinea; settings: for Plant response rating, Morningglory: preemergence; for Morningglory plant response rating: postemergence, visual rating, scale 0 (no effect) to 100 (complete control)
# In short: (§1)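 Species tested were Echinochloa crus-galli, Ipomoea coccinea, Xanthium strumarium and Oryza sativa, treated both before emergence and at the 1- to 4-leaf stage; rice and barnyardgrass were also tested under flooding at 2 leaves. Greenhouse incubation lasted 13–15 days before visual 0–100 scoring.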
# blackgrass = experiment: Test B postemergence herbicide test; assay type: in vivo, Alopecurus myosuroides; settings: postemergence, visual rating, scale 0 (no effect) to 100 (complete control)
# In short: (§2)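 Plants grow to 1- to 4-leaf stage (2–18 cm) for postemergence spraying, or to 2-leaf stage for the paddy test. Formulated compound is applied. Greenhouse holding lasts 13–15 days. Response is scored visually relative to controls, 0 no effect to 100 complete control; a dash means no result.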
# Surinam grass = experiment: Test B pre-/postemergence herbicide test; assay type: in vivo, Urochloa decumbens; settings: for Plant response rating, Surinam Grass: preemergence; for Surinam Grass plant response rating: postemergence, visual rating, scale 0 (no effect) to 100 (complete control)
# In short: (§3)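 Response was scored visually 13 to 15 days after treatment against untreated greenhouse controls, 0 meaning no effect and 100 complete control. Formulations (solvent mixture plus surfactant) went onto soil after planting, onto foliage of 1- to 4-leaf plants, and onto 2-leaf plants in a flooded paddy set including rice and barnyardgrass.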
# wheat = experiment: Test B postemergence herbicide test; assay type: in vivo, Triticum aestivum; design: key to Wheat plant response rating: 0 = no effect, 100 = complete control; settings: postemergence, 500 g ai/ha; visual rating, scale 0 (no effect) to 100 (complete control)
# In short: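 Visual ratings, 0 (no effect) to 100 (complete control), made versus controls after 13–15 d greenhouse. Paddy plants treated at 2-leaf stage; postemergence plants at 1- to 4-leaf stage, 2–18 cm tall.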
# ducksalad = experiment: Test B flooded paddy test; assay type: in vivo, Heteranthera limosa; settings: 1000 g ai/ha, visual rating, scale 0 to 100 (0 no effect, 100 complete control), 13 to 15 days
# In short: as §2
# velvetleaf = experiment: Test B pre-/postemergence herbicide test; assay type: in vivo, Abutilon theophrasti; settings: for Plant response rating, Velvetleaf: preemergence; for Velvetleaf plant response rating: postemergence, visual rating, scale 0 (no effect) to 100 (complete control)
# In short: as §3
# pigweed = experiment: Test B pre-/postemergence herbicide test; assay type: in vivo, Amaranthus retroflexus; settings: for Plant response rating, Pigweed: preemergence; for Pigweed plant response rating: postemergence, visual rating, scale 0 (no effect) to 100 (complete control)
# In short: as §3
# lambsquarters = experiment: Test B pre-/postemergence herbicide test; assay type: in vivo, Chenopodium album; settings: for Plant response rating, Lambsquarters: preemergence; for Lambsquarters plant response rating: postemergence, visual rating, scale 0 (no effect) to 100 (complete control)
# In short: as §3
# large crabgrass = experiment: Test B pre-/postemergence herbicide test; assay type: in vivo, Digitaria sanguinalis; settings: for Plant response rating, Crabgrass, Large: preemergence; for Crabgrass, Large plant response rating: postemergence, visual rating, scale 0 (no effect) to 100 (complete control)
# In short: as §3
# cocklebur = experiment: Test B pre-/postemergence herbicide test; assay type: in vivo, Xanthium strumarium; settings: for Plant response rating, Cocklebur: preemergence; for Cocklebur plant response rating: postemergence, visual rating, scale 0 (no effect) to 100 (complete control)
# In short: as §1
# barnyardgrass [1] = experiment: Test B flooded paddy test; assay type: in vivo, Echinochloa crus-galli; settings: 1000 g ai/ha, visual rating, scale 0 to 100 (0 no effect, 100 complete control), 13 to 15 days
# In short: as §2
# barnyardgrass [2] = experiment: Test B pre-/postemergence herbicide test; assay type: in vivo, Echinochloa crus-galli; settings: for Plant response rating, Barnyardgrass: preemergence; for Barnyardgrass plant response rating: postemergence, visual rating, scale 0 (no effect) to 100 (complete control)
# In short: as §1
# rice = experiment: Test B flooded paddy test; assay type: in vivo, Oryza sativa; settings: 1000 g ai/ha, visual rating, scale 0 to 100 (0 no effect, 100 complete control), 13 to 15 days
# In short: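 Postemergence plants were sprayed with formulated test chemicals at 2 to 18 cm height (1- to 4-leaf stage); paddy species were grown to the 2-leaf stage. After 13 to 15 days in a greenhouse, injury was rated visually against untreated controls on a 0–100 scale (0 = no effect, 100 = complete control).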
# giant foxtail = experiment: Test B pre-/postemergence herbicide test; assay type: in vivo, Setaria faberi; settings: for Plant response rating, Foxtail, Giant: preemergence; for Foxtail, Giant plant response rating: postemergence, visual rating, scale 0 (no effect) to 100 (complete control)
# In short: as §3
# [3] = tested on: small flower umbrella sedge; experiment: Test B flooded paddy test; assay type: in vivo, Cyperus difformis; settings: 1000 g ai/ha, visual rating, scale 0 to 100 (0 no effect, 100 complete control), 13 to 15 days
# In short: as §2
# [4] = 500 g ai/ha, visual rating 0-100, 0 no effect, 100 complete control
# [5] = 125 g ai/ha, 0 to 100 scale, 0 is no effect, 100 is complete control
smiles,measurement,setting,value
CCN(CC)C(=O)c1cccc(NC(=O)c2cc(C(C)(C)C)nn2CC)n1 [Compound 145],"Plant response rating, Morningglory",morningglory; [4],40
same,Morningglory plant response rating,morningglory; 125 g ai/ha,0
same,Morningglory plant response rating,morningglory; 500 g ai/ha,20
same,"Plant response rating, Morningglory",morningglory; [5],30
same,Blackgrass plant response rating,blackgrass; 125 g ai/ha,10
same,Blackgrass plant response rating,blackgrass; 500 g ai/ha,10
same,"Plant response rating, Surinam Grass",Surinam grass; [4],80
same,Surinam Grass plant response rating,Surinam grass; 125 g ai/ha,20
same,Surinam Grass plant response rating,Surinam grass; 500 g ai/ha,20
same,"Plant response rating, Surinam Grass",Surinam grass; [5],30
same,Wheat plant response rating,wheat,20
same,Ducksalad plant response rating,ducksalad,70
same,"Plant response rating, Velvetleaf",velvetleaf; [4],100
same,Velvetleaf plant response rating,velvetleaf; 125 g ai/ha,50
same,Velvetleaf plant response rating,velvetleaf; 500 g ai/ha,60
same,"Plant response rating, Velvetleaf",velvetleaf; [5],80
same,"Plant response rating, Pigweed",pigweed; [4],100
same,Pigweed plant response rating,pigweed; 125 g ai/ha,90
same,Pigweed plant response rating,pigweed; 500 g ai/ha,100
same,"Plant response rating, Pigweed",pigweed; [5],100
same,"Plant response rating, Lambsquarters",lambsquarters; [4],100
same,Lambsquarters plant response rating,lambsquarters; 125 g ai/ha,60
same,Lambsquarters plant response rating,lambsquarters; 500 g ai/ha,70
same,"Plant response rating, Lambsquarters",lambsquarters; [5],80
same,"Plant response rating, Crabgrass, Large",large crabgrass; [4],100
same,"Crabgrass, Large plant response rating",large crabgrass; 125 g ai/ha,10
same,"Crabgrass, Large plant response rating",large crabgrass; 500 g ai/ha,10
same,"Plant response rating, Cocklebur",cocklebur; [4],20
same,Cocklebur plant response rating,cocklebur; 125 g ai/ha,0
same,Cocklebur plant response rating,cocklebur; 500 g ai/ha,30
same,"Plant response rating, Cocklebur",cocklebur; [5],0
same,Barnyardgrass plant response rating,barnyardgrass [1],70
same,"Plant response rating, Barnyardgrass",barnyardgrass [2]; [4],100
same,Barnyardgrass plant response rating,barnyardgrass [2]; 125 g ai/ha,0
same,Barnyardgrass plant response rating,barnyardgrass [2]; 500 g ai/ha,40
same,"Plant response rating, Barnyardgrass",barnyardgrass [2]; [5],70
same,Rice plant response rating,rice,40
same,"Plant response rating, Foxtail, Giant",giant foxtail; [4],100
same,"Foxtail, Giant plant response rating",giant foxtail; 125 g ai/ha,30
same,"Foxtail, Giant plant response rating",giant foxtail; 500 g ai/ha,40
same,"Plant response rating, Foxtail, Giant",giant foxtail; [5],80
same,"Sedge, Umbrella plant response rating",[3],90
CCn1nc(C(C)(C)C)cc1C(=O)Nc1cccc(C(=O)NC2CC2)n1 [Compound 146],"Plant response rating, Morningglory",morningglory; [4],10
same,Morningglory plant response rating,morningglory; 125 g ai/ha,0
same,Morningglory plant response rating,morningglory; 500 g ai/ha,20
same,"Plant response rating, Morningglory",morningglory; [5],0
same,Blackgrass plant response rating,blackgrass; 125 g ai/ha,10
same,Blackgrass plant response rating,blackgrass; 500 g ai/ha,20
same,"Plant response rating, Surinam Grass",Surinam grass; [4],30
same,Surinam Grass plant response rating,Surinam grass; 125 g ai/ha,10
same,Surinam Grass plant response rating,Surinam grass; 500 g ai/ha,30
same,"Plant response rating, Surinam Grass",Surinam grass; [5],10
same,Wheat plant response rating,wheat,10
same,Ducksalad plant response rating,ducksalad,80
same,"Plant response rating, Velvetleaf",velvetleaf; [4],90
same,Velvetleaf plant response rating,velvetleaf; 125 g ai/ha,50
same,Velvetleaf plant response rating,velvetleaf; 500 g ai/ha,60
same,"Plant response rating, Velvetleaf",velvetleaf; [5],20
same,"Plant response rating, Pigweed",pigweed; [4],100
same,Pigweed plant response rating,pigweed; 125 g ai/ha,80
same,Pigweed plant response rating,pigweed; 500 g ai/ha,90
same,"Plant response rating, Pigweed",pigweed; [5],100
same,"Plant response rating, Lambsquarters",lambsquarters; [4],100
same,Lambsquarters plant response rating,lambsquarters; 125 g ai/ha,80
same,Lambsquarters plant response rating,lambsquarters; 500 g ai/ha,90
same,"Plant response rating, Lambsquarters",lambsquarters; [5],80
same,"Plant response rating, Crabgrass, Large",large crabgrass; [4],100
same,"Crabgrass, Large plant response rating",large crabgrass; 125 g ai/ha,10
same,"Crabgrass, Large plant response rating",large crabgrass; 500 g ai/ha,20
same,"Plant response rating, Crabgrass, Large",large crabgrass; [5],10
same,"Plant response rating, Cocklebur",cocklebur; [4],0
same,Cocklebur plant response rating,cocklebur; 125 g ai/ha,20
same,Cocklebur plant response rating,cocklebur; 500 g ai/ha,80
same,"Plant response rating, Cocklebur",cocklebur; [5],0
same,Barnyardgrass plant response rating,barnyardgrass [1],60
same,"Plant response rating, Barnyardgrass",barnyardgrass [2]; [4],90
same,Barnyardgrass plant response rating,barnyardgrass [2]; 125 g ai/ha,20
same,Barnyardgrass plant response rating,barnyardgrass [2]; 500 g ai/ha,60
same,"Plant response rating, Barnyardgrass",barnyardgrass [2]; [5],40
same,Rice plant response rating,rice,40
same,"Plant response rating, Foxtail, Giant",giant foxtail; [4],90
same,"Foxtail, Giant plant response rating",giant foxtail; 125 g ai/ha,20
same,"Foxtail, Giant plant response rating",giant foxtail; 500 g ai/ha,20
same,"Plant response rating, Foxtail, Giant",giant foxtail; [5],10
same,"Sedge, Umbrella plant response rating",[3],90
CCNC(=O)c1cc(C)nc(NC(=O)c2cc(C(C)(C)C)nn2CC)c1 [Compound 149],"Plant response rating, Morningglory",morningglory; [4],40
same,Morningglory plant response rating,morningglory; 125 g ai/ha,20
same,Morningglory plant response rating,morningglory; 500 g ai/ha,40
same,"Plant response rating, Morningglory",morningglory; [5],20
same,Blackgrass plant response rating,blackgrass; 125 g ai/ha,10
same,Blackgrass plant response rating,blackgrass; 500 g ai/ha,40
same,"Plant response rating, Surinam Grass",Surinam grass; [4],80
same,Surinam Grass plant response rating,Surinam grass; 125 g ai/ha,10
same,Surinam Grass plant response rating,Surinam grass; 500 g ai/ha,20
same,"Plant response rating, Surinam Grass",Surinam grass; [5],40
same,Wheat plant response rating,wheat,10
same,Ducksalad plant response rating,ducksalad,90
same,"Plant response rating, Velvetleaf",velvetleaf; [4],40
same,Velvetleaf plant response rating,velvetleaf; 125 g ai/ha,10
same,Velvetleaf plant response rating,velvetleaf; 500 g ai/ha,50
same,"Plant response rating, Velvetleaf",velvetleaf; [5],0
same,"Plant response rating, Pigweed",pigweed; [4],100
same,Pigweed plant response rating,pigweed; 125 g ai/ha,50
same,Pigweed plant response rating,pigweed; 500 g ai/ha,70
same,"Plant response rating, Pigweed",pigweed; [5],100
same,"Plant response rating, Lambsquarters",lambsquarters; [4],100
same,Lambsquarters plant response rating,lambsquarters; 125 g ai/ha,20
same,Lambsquarters plant response rating,lambsquarters; 500 g ai/ha,60
same,"Plant response rating, Lambsquarters",lambsquarters; [5],60
same,"Plant response rating, Crabgrass, Large",large crabgrass; [4],100
same,"Crabgrass, Large plant response rating",large crabgrass; 125 g ai/ha,10
same,"Crabgrass, Large plant response rating",large crabgrass; 500 g ai/ha,30
same,"Plant response rating, Crabgrass, Large",large crabgrass; [5],90
same,"Plant response rating, Cocklebur",cocklebur; [4],0
same,Cocklebur plant response rating,cocklebur; 125 g ai/ha,20
same,Cocklebur plant response rating,cocklebur; 500 g ai/ha,100
same,"Plant response rating, Cocklebur",cocklebur; [5],0
same,Barnyardgrass plant response rating,barnyardgrass [1],70
same,"Plant response rating, Barnyardgrass",barnyardgrass [2]; [4],90
same,Barnyardgrass plant response rating,barnyardgrass [2]; 125 g ai/ha,0
same,Barnyardgrass plant response rating,barnyardgrass [2]; 500 g ai/ha,30
same,"Plant response rating, Barnyardgrass",barnyardgrass [2]; [5],80
same,Rice plant response rating,rice,50
same,"Plant response rating, Foxtail, Giant",giant foxtail; [4],100
same,"Foxtail, Giant plant response rating",giant foxtail; 125 g ai/ha,10
same,"Foxtail, Giant plant response rating",giant foxtail; 500 g ai/ha,10
same,"Plant response rating, Foxtail, Giant",giant foxtail; [5],60
same,"Sedge, Umbrella plant response rating",[3],60
